Entries after “also recorded” stand apart in the source; their conditions may differ. Where no end group is shown, it is not given here.
Assays:
H929 = experiment: Cell proliferation assay (CellTiter-Glo), H929; format: cell-based; conditions: H929, Human Multiple Myeloma, peptides 100 μM-0.2 μM, 72 hrs
Description: (§1) Cell Proliferation Assay. The Tat-RAF1-73, Tat-RAF1-78, Tat-EGFR-697 and Tat-Flag peptides were tested for growth inhibition in an in vitro cell proliferation assay. The assay tested the peptides against ten tumor cell lines and four non-tumor cell lines (Primary Fibroblasts, CCD 841 CoN, human umbilical vein cells and Human Hepatocytes). Cells were plated in a 384 well plate and allowed to grow for 24 hrs. Peptides were then added to cultures at a final concentration range of 100 μM-0.2 μM. Cells and peptides were then reacted for 72 hrs, after which the CellTiter-Glo Luminescent Cell Viability Assay kit (Promega) was used to assess cytotoxicity of therapeutic peptides. IC50 values were determined by the percent cell growth of the untreated (vehicle) control calculated from the luminescence signals compared to test wells. The surviving fraction of cells is determined by dividing the mean luminescence values of the test agents by the mean luminescence values of the untreated control. The inhibitory concentration value, IC50, for the test agents and control was estimated using Prism 8 software (GraphPad Software, Inc.) by curve- fitting the data using the non-linear regression analysis.

SNU398 = experiment: Cell proliferation assay (CellTiter-Glo), SNU398; format: cell-based; conditions: SNU398, RAF1 mRNA (Log2) 6.07, 72 hrs
Description: as §1

Jurkat = experiment: Cell proliferation assay (CellTiter-Glo), Jurkat; format: cell-based; conditions: RAF1 mRNA (Log2) 6.05, 72 hrs
Description: as §1

HUH6-luc = experiment: Cell proliferation assay (CellTiter-Glo), HUH6-luc; format: cell-based; conditions: RAF1 mRNA (Log2) 6.05, 72 hrs
Description: as §1

Colo205 = experiment: Cell proliferation assay (CellTiter-Glo), Colo205; format: cell-based; conditions: Colo205, Human Colon, 72 hrs
Description: as §1

A549 = experiment: Cell proliferation assay (CellTiter-Glo), A549; format: cell-based; conditions: A549, RAF1 mRNA (Log2) Negative, 72 hrs
Description: as §1

MDA-MB-231 = experiment: Cell proliferation assay (CellTiter-Glo), MDA-MB-231; format: cell-based; conditions: MDA-MB-231, EGFR mRNA (Log2) 4.78, 72 hrs
Description: as §1

HT1376 = experiment: Cell proliferation assay (CellTiter-Glo), HT1376; format: cell-based; conditions: HT1376, EGFR mRNA (Log2) 5., 72 hrs, starred value was averaged using >100 μM value for one trial result
Description: as §1

FaDu = experiment: Cell proliferation assay (CellTiter-Glo), FaDu; format: cell-based; conditions: EGFR mRNA (Log2) 6.28, 72 hrs
Description: as §1

SK-MEL-5 = experiment: Cell proliferation assay (CellTiter-Glo), SK-MEL-5; format: cell-based; conditions: SK-MEL-5, EGFR mRNA (Log2) 5.92, 72 hrs
Description: as §1

Primary Fibroblasts = experiment: Cell proliferation assay (CellTiter-Glo), Primary Fibroblasts; format: cell-based; conditions: Skin Fibroblast (non-tumor), 72 hrs
Description: as §1

CCD 841 CoN = experiment: Cell proliferation assay (CellTiter-Glo), CCD 841 CoN; format: cell-based; conditions: Normal Human Colon (non-tumor), 72 hrs
Description: as §1

Human Hepatocytes = experiment: Cell proliferation assay (CellTiter-Glo), Human Hepatocytes; format: cell-based; conditions: Human Hepatocytes (non-tumor), 72 hrs
Description: as §1

[1] = tested on: Human umbilical vein endothelial cells (HUVEC); experiment: Cell proliferation assay (CellTiter-Glo), HUVEC; format: cell-based; conditions: Normal endothelial (non-tumor), 72 hrs
Description: as §1

[2] = tested on: ten tumor cell lines and four non-tumor cell lines; experiment: Cell proliferation assay (CellTiter-Glo), summary over the cell panel; format: cell-based; conditions: any of the cells screened
Description: as §1
Ten cancer cell lines were screened as well as […] non-cancer cell types (e.g. primary fibroblasts, CCD 841 CoN, and human hepatocytes). […]

Hs578T cells = experiment: Arrayed validation of lentivirally delivered gene fragments, WST-8 cell growth, Hs578T; conditions: 7 days, vs GFP control
Description: (§2) All cell lines used were cultured in DMEM media supplemented with 10% FBS. The fitness impact of highly depleted gene fragments was tested in an arrayed format via a WST-8 (Dojindo) cell growth assay. […] Cells were transduced at an MOI of 4 and switched to puromycin containing media after 48 hours. Following 24 hours of puromycin selection 1,500 cells were seeded per well as biological replicates in a 96 well plate. All experimental groups for Hs578T cells had n=4. […] For HEK293T and MCF-7 cells all experimental groups had n=8. 2 μg/ml puromycin was used to select Hs578T and MCF-7 cells, while 3.5 μg/ml puromycin was used to select MDA-MB-231 and HEK293T cells. […] Cell growth was then quantified via absorbance at 450 nm following 1.5 hrs of incubation with WST-8 reagent. A two-tailed P value was then calculated via an unpaired ttest with Welch's correction.

MDA-MB-231 cells = experiment: Arrayed validation of lentivirally delivered gene fragments, WST-8 cell growth, MDA-MB-231; conditions: 7 days, vs GFP control
Description: as §2

[3] = tested on: triple-negative breast cancer cell growth; experiment: Inhibition of cell growth by drug-like peptides (summary statements); format: cell-based; conditions: compared with FDA approved small molecules
Description: Engineering Peptides for Exogenous Delivery. Peptides shown in FIG. 3B were fused to an N-terminal cell penetrating motif via a (GS)3 linker sequence (Table 5) and chemically synthesized by GenScript's Custom Peptide Synthesis service at crude purity. For dose response experiments, cells were plated in 96 well plates (n=4) at 50% confluency and peptides were added at the indicated concentrations with cell viability quantified after 24hrs via the WST-8 assay. Cell viability was normalized to that of an untreated control on the same plate.

MCF-7 cells = experiment: Arrayed validation of lentivirally delivered gene fragments, WST-8 cell growth, MCF-7
Description: as §2

HEK293T cells = experiment: Arrayed validation of lentivirally delivered gene fragments, WST-8 cell growth, HEK293T
Description: as §2

## GRKKRRQRRRPPQGSGSGSDYKDHDGDYKDHDIDYKDDDDK [Tat-Flag, reference compound]
H929
  IC50: > 100 µM
SNU398
  IC50: > 100 µM
Jurkat
  IC50: > 100 µM
HUH6-luc
  IC50: > 100 µM
Colo205
  IC50: > 100 µM
A549
  IC50: > 100 µM
MDA-MB-231
  IC50: > 100 µM
HT1376
  IC50: > 100 µM
FaDu
  IC50: > 100 µM
SK-MEL-5
  IC50: > 100 µM
Primary Fibroblasts
  IC50: > 100 µM
CCD 841 CoN
  IC50: > 100 µM
Human Hepatocytes
  IC50: > 100 µM
[1]
  IC50: > 100 µM
[2]
  activity in the cells screened: no activity

## MPTIEDSYRKQVVIDGETCLLDILDTAGKEEYSAMRDQYMR [KRAS61K-13]
Hs578T cells
  cell growth after lentiviral overexpression (WST-8): significantly reduced cell growth
MDA-MB-231 cells
  cell growth after lentiviral overexpression (WST-8): significantly reduced cell growth

## MFVDEYDPTIEDSYRKQVVIDGETCLLDILDTAGKEEYSAM [KRAS61K-7]
Hs578T cells
  cell growth after lentiviral overexpression (WST-8): significantly reduced cell growth
MDA-MB-231 cells
  cell growth after lentiviral overexpression (WST-8): significantly reduced cell growth

## GRKKRRQRRRPPQGSGSGSMEAPNQALLRILKETEFKKIKVLGSGAFGTVYKGLWIPEGE [Tat-EGFR-697]
H929
  IC50: 5.1 µM
SNU398
  IC50: 29.2 µM
Jurkat
  IC50: 41.1 µM
HUH6-luc
  IC50: 73.5 µM
Colo205
  IC50: 19.8 µM
A549
  IC50: 59.6 µM
MDA-MB-231
  IC50: 56.6 µM
HT1376
  IC50: 95.6 µM
FaDu
  IC50: 89.2 µM
SK-MEL-5
  IC50: 27.6 µM
Primary Fibroblasts
  IC50: 15.1 µM
CCD 841 CoN
  IC50: > 100 µM
Human Hepatocytes
  IC50: 11.6 µM
[1]
  IC50: 14 µM

## MEAPNQALLRILKETEFKKIKVLGSGAFGTVYKGLWIPEGE [EGFR-697]
[3]
  triple-negative breast cancer cell growth in vitro: opposed triple-negative breast cancer cell growth in vitro as effectively as some FDA approved small molecules
MCF-7 cells
  cell growth after lentiviral overexpression (WST-8): reduced fitness defect
Hs578T cells
  cell growth after lentiviral overexpression (WST-8): deleterious to cell growth; also recorded: significant growth arrest
HEK293T cells
  cell growth after lentiviral overexpression (WST-8): no growth defects
MDA-MB-231 cells
  cell growth after lentiviral overexpression (WST-8): deleterious to cell growth

## MRNGMSLHDCLMKALKVRGLQPECCAVFRLLHEHKGKKARL (cysteines drawn unpaired) [RAF1-73]
[3]
  triple-negative breast cancer cell growth in vitro: opposed triple-negative breast cancer cell growth in vitro as effectively as some FDA approved small molecules
HEK293T cells
  cell growth after lentiviral overexpression (WST-8): no growth defects

## MIQNHFVDEYDPTIEDSYRKQVVIDGETCLLDILDTAGKEE [KRAS61K-3]
Hs578T cells
  cell growth after lentiviral overexpression (WST-8): significantly reduced cell growth
MDA-MB-231 cells
  cell growth after lentiviral overexpression (WST-8): significantly reduced cell growth

— patent US20220307013A1, “GENE FRAGMENT OVEREXPRESSION SCREENING METHODOLOGIES, AND USES THEREOF” (priority 2019, published 2022)
